Source: patent US20110124564A1, “NUCLEOLIN-BINDING PEPTIDES, NUCLEOLIN- BINDING LYTIC PEPTIDES, FUSION CONSTRUCTS AND METHODS OF MAKING AND USING SAME” (ESPERANCE PHARMACEUTICALS, INC., published 2011)
Read-outs that look alike come from different tables or passages of the source. Residues, ends and D or L forms follow the SMILES beside them.

Key:
[1] = test system: MDA-MB-435S breast cancer cells; format: cell-based, human
Protocol: EP-301 and EP-302 were analyzed for anti-cancer activity in vitro in a time course experiment against MDA-MB-435S breast cancer cells. EP-301 and EP-302 were freshly dissolved in saline and added into cancer cell seeded multi-well plates at increasing concentrations of 0, 0.001, 0.01, 0.1, 1, 2, 5, 10 and 100 μM. Incubations were conducted for 0.25, 0.5, 1, 2, 4, 6 h or 24 h at 37° C. Cell viability was determined using formazan conversion assays (MTT assays). Controls were treated with USP saline or 0.1% TritonX-100™ as reference for 0 and 100% cell death, respectively. Cytotoxicity was evaluated as an IC50 value derived for EP-301 and EP-302 at each time point.

[2] = test system: MDA-MB-435S breast cancer cells; format: cell-based, human; settings: 4 h
Protocol: Twelve different fusion constructs were analyzed for anti-cancer activity in vitro against MDA-MB-435S breast cancer cells and for hemolytic activity in vitro to human red blood cells. Fusion constructs of the following sequence were tested:
(§1) The peptide conjugates were freshly dissolved in saline and added into cancer cell seeded multi-well plates at increasing concentrations of 0, 0.001, 0.01, 0.1, 1, 2, 5, 10 and 100 μM. Incubations were conducted for 4 h at 37° C. Cell viability was determined using formazan conversion assays (MTT assays). Controls were treated with USP saline or 0.1% TritonX-100™ as reference for 0 and 100% cell death, respectively. Cytotoxicity was evaluated as an IC50 value.

human red blood cells = test: Hemolytic activity; format: cell-based
Protocol: Hemolytic activity was studied by incubating the fusion constructs with human red blood cells at concentrations of 0.01, 0.1, 1, 10 and 50 μM for 2 hours. Saline and 0.1% Triton served as controls.
Hemolytic activity of the compounds was studied by incubating EP-301 and EP-302 with human red blood cells at concentrations of 0.01, 0.1, 1, 10 and 50 μM for 2 hours.

[3] = test system: HL60 (Acute Myeloid Leukemia); format: cell-based, human; settings: 24 h
Protocol: as §1, with “EP-302 was” for “The peptide conjugates were”, “6 h or 24” for “4”, “value derived for EP-302 in each cell line.” for “value.”

MDA-MB-435S (Breast) = format: cell-based, human
Protocol: as §1, with “EP-302 was” for “The peptide conjugates were”, “6 h or 24” for “4”, “value derived for EP-302 in each cell line.” for “value.”

MiaPaCa (Pancreas) = format: cell-based, human
Protocol: as §1, with “EP-302 was” for “The peptide conjugates were”, “6 h or 24” for “4”, “value derived for EP-302 in each cell line.” for “value.”

PC-3 (Prostate) = format: cell-based, human
Protocol: as §1, with “EP-302 was” for “The peptide conjugates were”, “6 h or 24” for “4”, “value derived for EP-302 in each cell line.” for “value.”

A549 (Lung) = format: cell-based
Protocol: as §1, with “EP-302 was” for “The peptide conjugates were”, “6 h or 24” for “4”, “value derived for EP-302 in each cell line.” for “value.”

CHO (Hamster Ovary) = format: cell-based
Protocol: as §1, with “EP-302 was” for “The peptide conjugates were”, “6 h or 24” for “4”, “value derived for EP-302 in each cell line.” for “value.”

DU145 (Prostate) = format: cell-based
Protocol: as §1, with “EP-302 was” for “The peptide conjugates were”, “6 h or 24” for “4”, “value derived for EP-302 in each cell line.” for “value.”

Daudi (NHL) = format: cell-based
Protocol: as §1, with “EP-302 was” for “The peptide conjugates were”, “6 h or 24” for “4”, “value derived for EP-302 in each cell line.” for “value.”

HT 116(Colon) = format: cell-based
Protocol: as §1, with “EP-302 was” for “The peptide conjugates were”, “6 h or 24” for “4”, “value derived for EP-302 in each cell line.” for “value.”

HT 29 (Colon) = format: cell-based; settings: 6 h
Protocol: as §1, with “EP-302 was” for “The peptide conjugates were”, “6 h or 24” for “4”, “value derived for EP-302 in each cell line.” for “value.”

[4] = test system: K562 (Chronic Myeloid Leukemia); format: cell-based; settings: 24 h
Protocol: as §1, with “EP-302 was” for “The peptide conjugates were”, “6 h or 24” for “4”, “value derived for EP-302 in each cell line.” for “value.”

LoVo (Colon) = format: cell-based; settings: 6 h
Protocol: as §1, with “EP-302 was” for “The peptide conjugates were”, “6 h or 24” for “4”, “value derived for EP-302 in each cell line.” for “value.”

[5] = test system: MCF-10A (normal breast cells); format: cell-based; settings: 24 h
Protocol: as §1, with “EP-302 was” for “The peptide conjugates were”, “6 h or 24” for “4”, “value derived for EP-302 in each cell line.” for “value.”

MCF-7 (Breast) = format: cell-based
Protocol: as §1, with “EP-302 was” for “The peptide conjugates were”, “6 h or 24” for “4”, “value derived for EP-302 in each cell line.” for “value.”

MDA-MB-231 (Breast) = format: cell-based
Protocol: as §1, with “EP-302 was” for “The peptide conjugates were”, “6 h or 24” for “4”, “value derived for EP-302 in each cell line.” for “value.”

[6] = test system: MV4-11(Acute Myeloid Leukemia); format: cell-based; settings: 24 h
Protocol: as §1, with “EP-302 was” for “The peptide conjugates were”, “6 h or 24” for “4”, “value derived for EP-302 in each cell line.” for “value.”

[7] = test system: NIH-3T3 (mouse fibroblast cells); format: cell-based; settings: 24 h
Protocol: as §1, with “EP-302 was” for “The peptide conjugates were”, “6 h or 24” for “4”, “value derived for EP-302 in each cell line.” for “value.”

OVCAR-3 (Ovary) = format: cell-based; settings: 6 h
Protocol: as §1, with “EP-302 was” for “The peptide conjugates were”, “6 h or 24” for “4”, “value derived for EP-302 in each cell line.” for “value.”

SKOV-3 (Ovary) = format: cell-based
Protocol: as §1, with “EP-302 was” for “The peptide conjugates were”, “6 h or 24” for “4”, “value derived for EP-302 in each cell line.” for “value.”

[8] = In vivo tolerability, repeat dose, nude mice; set-up: species or system mouse; settings: 5 consecutive days; for Survival [%] Day 1 / Survival [%] Day 2* / Survival [%] Day 3 / Survival [%] Day 4 / Survival [%] Day 5: BalbC/nude mice
Protocol: Body weight, blood chemistry and blood cell counts were measured. […] Blood parameters for CBC and serum chemistry were normal in treated mice of both groups.

[9] = 5 and 10 mg/kg i.v., female nude mice

With `CC(C)C[C@H](NC(=O)[C@H](CCCNC(=N)N)NC(=O)[C@H](C)NC(=O)[C@H](CO)NC(=O)[C@H](CCCNC(=N)N)NC(=O)[C@H](CCCNC(=N)N)NC(=O)[C@H](CCC(N)=O)NC(=O)[C@@H]1CCCN1C(=O)[C@H](CCC(=O)O)NC(=O)[C@H](CC(=O)O)NC(=O)[C@H](CCCCN)NC(=O)[C@H](CCCCN)NC(=O)[C@H](C)NC(=O)[C@H](Cc1ccccc1)NC(=O)[C@H](CCCCN)NC(=O)[C@H](CCCCN)NC(=O)[C@H](C)NC(=O)[C@H](Cc1ccccc1)NC(=O)[C@H](CCCCN)NC(=O)[C@H](C)NC(=O)[C@H](Cc1ccccc1)NC(=O)[C@H](CCCCN)NC(=O)[C@H](CCCCN)NC(=O)[C@H](C)NC(=O)[C@H](Cc1ccccc1)NC(=O)[C@H](CCCCN)NC(=O)[C@H](C)NC(=O)[C@H](Cc1ccccc1)NC(=O)[C@@H](N)CCCCN)C(=O)N[C@@H](CO)C(=O)N[C@@H](C)C(=O)N[C@@H](CCCCN)C(=O)O` [EP-301] (H-KFAKFAKKFAKFAKKFAKKDEPQRRSARLSAK-OH) the IC50 ([1]; 24 h) was 12 µM, the IC50 [2] was 64.8 µM and the HA50 (human red blood cells) was “Not hemolytic”.

For `CC(C)C[C@H](NC(=O)[C@H](CCCNC(=N)N)NC(=O)[C@H](C)NC(=O)[C@H](CO)NC(=O)[C@H](CCCNC(=N)N)NC(=O)[C@H](CCCNC(=N)N)NC(=O)[C@H](CCC(N)=O)NC(=O)[C@H](CC(C)C)NC(=O)[C@H](CCCNC(=N)N)NC(=O)[C@H](C)NC(=O)[C@H](CCCNC(=N)N)NC(=O)[C@H](CCCCN)NC(=O)[C@H](C)NC(=O)[C@H](Cc1ccccc1)NC(=O)[C@H](CCCCN)NC(=O)[C@H](CCCCN)NC(=O)[C@H](C)NC(=O)[C@H](Cc1ccccc1)NC(=O)[C@H](CCCCN)NC(=O)[C@H](C)NC(=O)[C@H](Cc1ccccc1)NC(=O)[C@H](CCCCN)NC(=O)[C@H](CCCCN)NC(=O)[C@H](C)NC(=O)[C@H](Cc1ccccc1)NC(=O)[C@H](CCCCN)NC(=O)[C@H](C)NC(=O)[C@H](Cc1ccccc1)NC(=O)[C@@H](N)CCCCN)C(=O)N[C@@H](CO)C(=O)N[C@@H](C)C(=O)N[C@@H](CCCCN)C(=O)O` [EP-302] (H-KFAKFAKKFAKFAKKFAKRARLQRRSARLSAK-OH), the IC50 ([1]; 6 h) was 2.3 µM, the IC50 [2] was 0.9 ± 0.05 µM and the HA50 (human red blood cells) was “Not hemolytic”. For the same compound, the IC50 [3] was 0.5 µM, the IC50 (MDA-MB-435S (Breast); 6 h) was 1.4 ± 0.09 µM and the IC50 (MDA-MB-435S (Breast); 24 h) was 1.7 ± 0.2 µM. The IC50 (MiaPaCa (Pancreas); 6 h) was 2.1 ± 0.2 µM, the IC50 (MiaPaCa (Pancreas); 24 h) was 1.9 ± 0.1 µM and the IC50 (PC-3 (Prostate); 6 h) was 3.3 ± 0.3 µM. It also gave an IC50 (PC-3 (Prostate); 24 h) of 3.2 ± 0.8 µM, an IC50 (A549 (Lung); 6 h) of 4.3 ± 0.6 µM and an IC50 (A549 (Lung); 24 h) of 2.4 ± 0.08 µM. For the same compound, the IC50 (CHO (Hamster Ovary); 6 h) was 3.1 ± 0.9 µM, the IC50 (CHO (Hamster Ovary); 24 h) was 3.7 ± 0.2 µM and the IC50 (DU145 (Prostate); 6 h) was 3.1 ± 0.02 µM. The IC50 (DU145 (Prostate); 24 h) was 5.1 ± 0.1 µM, the IC50 (Daudi (NHL); 6 h) was 3.2 ± 0.4 µM and the IC50 (Daudi (NHL); 24 h) was 2.5 ± 0.05 µM. For the same compound, the IC50 (HT 116(Colon); 6 h) was 6.7 ± 0.9 µM, the IC50 (HT 116(Colon); 24 h) was 4.8 ± 1.1 µM and the IC50 (HT 29 (Colon)) was 45.8 ± 0.4 µM. The IC50 [4] was 2.8 µM, the IC50 (LoVo (Colon)) was 14.1 ± 0.5 µM and the IC50 [5] was 68 µM. For the same compound, the IC50 (MCF-7 (Breast); 6 h) was 5.5 ± 0.4 µM, the IC50 (MCF-7 (Breast); 24 h) was 6.4 ± 0.9 µM and the IC50 (MDA-MB-231 (Breast); 6 h) was 4.6 ± 0.9 µM. It also gave an IC50 (MDA-MB-231 (Breast); 24 h) of 3.6 ± 0.4 µM, an IC50 [6] of 0.5 µM and an IC50 [7] of 53 µM. For the same compound, the IC50 (OVCAR-3 (Ovary)) was 5.2 ± 0.3 µM, the IC50 (SKOV-3 (Ovary); 6 h) was 5.1 ± 0.2 µM and the IC50 (SKOV-3 (Ovary); 24 h) was 5.2 ± 0.9 µM. For the same compound, the “Survival [%] Day 1” value ([8]; 5 mg/kg i.v.) was 100 (5/5) %, the “Survival [%] Day 2*” value ([8]; 5 mg/kg i.v.) was 100 (5/5) % and the “Survival [%] Day 3” value ([8]; 5 mg/kg i.v.) was 100 (5/5) %. For the same compound, the “Survival [%] Day 4” value ([8]; 5 mg/kg i.v.) was 100 (5/5) %, the “Survival [%] Day 5” value ([8]; 5 mg/kg i.v.) was 100 (5/5) % and the “Survival [%] Day 1” value ([8]; 10 mg/kg i.v.) was 100 (5/5) %. For the same compound, the “Survival [%] Day 2*” value ([8]; 10 mg/kg i.v.) was 100 (5/5) %, the “Survival [%] Day 3” value ([8]; 10 mg/kg i.v.) was 100 (5/5) % and the “Survival [%] Day 4” value ([8]; 10 mg/kg i.v.) was 100 (5/5) %. The “Survival [%] Day 5” value ([8]; 10 mg/kg i.v.) was 100 (5/5) %, the “Blood parameters for CBC and serum chemistry” value [8, 9] was “normal” and the Body weight [8, 9] was “remained stable”. The “Signs of toxicity / tolerability” value [8, 9] was “no signs of toxicity”.
